# PubChem BioAssay AID330 (DTP/NCI, 2004)
# Several values for one entry are separate records, joined by “and”; a condition that tells them apart may be missing. Equal values may be shown once. Inconclusive results and toxic doses are left out. Peptide text beside a SMILES is read from it. * marks the point of attachment. Bz = O=C(c1ccccc1)*; Bn = c1ccc(C*)cc1; βAla = NCCC(=O)O
# System: P388 leukemia ip, CD2F1 mice, survival T/C
# Test: NCI In Vivo Anticancer Drug Screen. Data for tumor model P388 Leukemia (intraperitoneal) in CD2F1 (CDF1) mice
# Details: endpoint: median survival time, higher = longer survival
# Procedure, shortened: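 Mice carrying the transplanted tumor received test compound or vehicle. Survival was recorded in each group, and the value is the treated-group measurement divided by that of the vehicle-treated control group.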
# [1] = dose: 100.0 mg/kg/injection, schedule: Q01DX009 (ip), vehicle: saline with Tween-80
# [2] = dose: 200.0 mg/kg/injection, schedule: Q01DX009 (ip), vehicle: saline with Tween-80
# [3] = dose: 50.0 mg/kg/injection, schedule: Q01DX009 (ip), vehicle: saline with Tween-80
# [4] = dose: 50.0 mg/kg/injection, schedule: Q01DX005 (ip), vehicle: saline with Tween-80
# [5] = dose: 100.0 mg/kg/injection, schedule: Q01DX005 (ip), vehicle: saline with Tween-80
# [6] = dose: 200.0 mg/kg/injection, schedule: Q01DX005 (ip), vehicle: saline with Tween-80
# [7] = dose: 100.0 mg/kg/injection, schedule: Q01DX001 (ip), vehicle: Klucel (hydroxypropylcellulose) (HPC)
# [8] = dose: 200.0 mg/kg/injection, schedule: Q01DX001 (ip), vehicle: Klucel (hydroxypropylcellulose) (HPC)
# [9] = dose: 400.0 mg/kg/injection, schedule: Q01DX001 (ip), vehicle: Klucel (hydroxypropylcellulose) (HPC)
# [10] = dose: 50.0 mg/kg/injection, schedule: Q01DX009 (ip), vehicle: saline
# [11] = dose: 200.0 mg/kg/injection, schedule: Q01DX009 (ip), vehicle: saline
# [12] = dose: 50.0 mg/kg/injection, schedule: Q04DX003 (ip), vehicle: saline with Tween-80
# [13] = dose: 100.0 mg/kg/injection, schedule: Q04DX003 (ip), vehicle: saline with Tween-80
# [14] = dose: 200.0 mg/kg/injection, schedule: Q04DX003 (ip), vehicle: saline with Tween-80
# [15] = dose: 100.0 mg/kg/injection, schedule: Q01DX001 (ip), vehicle: saline
# [16] = dose: 200.0 mg/kg/injection, schedule: Q01DX001 (ip), vehicle: saline
# [17] = dose: 400.0 mg/kg/injection, schedule: Q01DX001 (ip), vehicle: saline
# [18] = dose: 50.0 mg/kg/injection, schedule: Q01DX009 (ip), vehicle: Klucel (hydroxypropylcellulose) (HPC)
# [19] = dose: 100.0 mg/kg/injection, schedule: Q01DX009 (ip), vehicle: Klucel (hydroxypropylcellulose) (HPC)
# [20] = dose: 200.0 mg/kg/injection, schedule: Q01DX009 (ip), vehicle: Klucel (hydroxypropylcellulose) (HPC)
smiles,measurement,setting,value
Nc1cc(Cl)ccc1[N+](=O)[O-],T/C,[1],108 % of control
same,T/C,[2],99 % of control
same,T/C,"dose: 400.0 mg/kg/injection, schedule: Q01DX009 (ip), vehicle: saline with Tween-80",89 % of control
CCCCCCCC#CC1(C(O)CC)Sc2ccccc2N1C (stereo not drawn),T/C,"dose: 60.0 mg/kg/injection, schedule: Q01DX005 (ip), vehicle: saline with Tween-80",107 % of control
same,T/C,"dose: 120.0 mg/kg/injection, schedule: Q01DX005 (ip), vehicle: saline with Tween-80",101 % of control
same,T/C,"dose: 240.0 mg/kg/injection, schedule: Q01DX005 (ip), vehicle: saline with Tween-80",105 % of control
c1ccc2c(c1)Cc1c(-c3noc4c3Cc3ccccc3-4)noc1-2,T/C,"dose: 60.0 mg/kg/injection, schedule: Q01DX005 (ip), vehicle: Klucel + Tween-80",100 % of control
same,T/C,"dose: 120.0 mg/kg/injection, schedule: Q01DX005 (ip), vehicle: Klucel + Tween-80",90 % of control
same,T/C,"dose: 240.0 mg/kg/injection, schedule: Q01DX005 (ip), vehicle: Klucel + Tween-80",91 % of control
Cc1ccc(C)c(NC(=O)Oc2cc(C)c(Cl)c(C)c2)c1,T/C,[3],101 % of control
same,T/C,[1],105 % of control
same,T/C,[2],98 % of control
O=[N+]([O-])c1ccc(CS(=O)(=O)OCCCl)cc1,T/C,[4],98 % of control
same,T/C,[5],98 % of control
same,T/C,[6],94 % of control
Cc1c(N)n[nH]c1-c1ccccc1,T/C,"dose: 50.0 mg/kg/injection, schedule: Q01DX001 (ip), vehicle: Klucel (hydroxypropylcellulose) (HPC)",100 % of control
same,T/C,[7],99 % of control
same,T/C,[8],106 % of control
N=C(N)c1ccc2oc(/C=C/c3nc4ccc(C(=N)N)cc4[nH]3)cc2c1,T/C,[7],98 % of control
same,T/C,[8],96 % of control
same,T/C,[9],98 % of control
COc1ccc(/C(C)=N/OC(=O)c2c(-c3ccccc3Cl)noc2C)cc1CN1CCOCC1,T/C,[10],94 % of control
same,T/C,"dose: 100.0 mg/kg/injection, schedule: Q01DX009 (ip), vehicle: saline",97 % of control
same,T/C,[11],97 % of control
CC(=O)C(Cl)C(=O)c1c(-c2ccccc2)[nH]c2ccccc12 (stereo not drawn),T/C,[7],100 % of control
same,T/C,[8],102 % of control
same,T/C,[9],105 % of control
COC(=O)C(CSCc1ccccc1)NC(=O)C(CSCc1ccccc1)NC(=O)CCNC(=O)c1ccccc1 (stereo not drawn) ({Bz-βAla}-Cys(Bn)-Cys(Bn)-OMe; configuration not given here),T/C,"dose: 12.5 mg/kg/injection, schedule: Q01DX009 (ip), vehicle: distilled water + Tween-80",92 % of control
same,T/C,"dose: 25.0 mg/kg/injection, schedule: Q01DX009 (ip), vehicle: distilled water + Tween-80",89 % of control
same,T/C,"dose: 50.0 mg/kg/injection, schedule: Q01DX009 (ip), vehicle: distilled water + Tween-80",90 % of control
same,T/C,"dose: 100.0 mg/kg/injection, schedule: Q01DX009 (ip), vehicle: distilled water + Tween-80",94 % of control
CCOC(=O)c1cncc(Br)c1,T/C,[4],113 % of control
same,T/C,[5],103 % of control
same,T/C,[6],113 % of control
C/C(=C\N1CCN(c2ccc(F)cc2)CC1)C(=O)c1ccc(F)cc1,T/C,[12],101 % of control
same,T/C,[13],99 % of control
same,T/C,[14],98 % of control
same,T/C,"dose: 400.0 mg/kg/injection, schedule: Q04DX003 (ip), vehicle: saline with Tween-80",117 % of control
Nc1ccc2[se]ccc2c1,T/C,"dose: 12.5 mg/kg/injection, schedule: Q01DX009 (ip), vehicle: suspension in saline",105 % of control
same,T/C,"dose: 25.0 mg/kg/injection, schedule: Q01DX009 (ip), vehicle: suspension in saline",100 % of control
same,T/C,[10],91 % of control
same,T/C,"dose: 50.0 mg/kg/injection, schedule: Q01DX009 (ip), vehicle: suspension in saline",100 % of control
same,T/C,[11],100 % of control
Cc1[nH]cc2c1C(c1ccccc1)=NCC(=O)N2,T/C,[3],105 % of control
same,T/C,[1],100 % of control
same,T/C,[2],114 % of control
CC(C)c1ccc(C(=O)C2C(=O)C=C(c3ccc(C(C)C)cc3)OC2=O)cc1 (stereo not drawn),T/C,[15],105 % of control
same,T/C,[16],108 % of control
same,T/C,[17],118 % of control
C=C1N=NN(c2ccc(C)cc2)C1N1CCOCC1 (stereo not drawn),T/C,"dose: 60.0 mg/kg/injection, schedule: Q01DX005 (ip), vehicle: Klucel (hydroxypropylcellulose) (HPC)",93 % of control
same,T/C,"dose: 120.0 mg/kg/injection, schedule: Q01DX005 (ip), vehicle: Klucel (hydroxypropylcellulose) (HPC)",99 % of control
same,T/C,"dose: 240.0 mg/kg/injection, schedule: Q01DX005 (ip), vehicle: Klucel (hydroxypropylcellulose) (HPC)",90 % of control
Cc1c(COC(=O)NC(C)C)c(COC(=O)NC(C)C)c(-c2ccccc2)n1-c1ccccc1,T/C,[4],188 % of control and 192 % of control
C#CCN(Cc1ccc2nc(N)[nH]c(=O)c2c1)c1ccc(C(=O)NC(CCC(=O)O)C(=O)O)cc1 (stereo not drawn),T/C,"dose: 12.5 mg/kg/injection, schedule: Q01DX005 (ip), vehicle: water",103 % of control and 104 % of control and 97 % of control
same,T/C,"dose: 25.0 mg/kg/injection, schedule: Q01DX005 (ip), vehicle: water",103 % of control and 104 % of control (2×)
same,T/C,"dose: 50.0 mg/kg/injection, schedule: Q01DX005 (ip), vehicle: water",109 % of control and 120 % of control (2×)
same,T/C,"dose: 100.0 mg/kg/injection, schedule: Q01DX005 (ip), vehicle: water",117 % of control
same,T/C,"dose: 150.0 mg/kg/injection, schedule: Q01DX005 (ip), vehicle: alkali diluted with water",97 % of control
same,T/C,"dose: 200.0 mg/kg/injection, schedule: Q01DX005 (ip), vehicle: water",97 % of control
CSc1nc(N)c(I)c(Cl)n1,T/C,[12],100 % of control
same,T/C,[15],110 % of control
same,T/C,[13],102 % of control
same,T/C,[16],113 % of control
same,T/C,[14],93 % of control
same,T/C,[17],110 % of control
CC(O)C(NC(=O)OC(C)(C)C)C(=O)ON1C(=O)CCC1=O (stereo not drawn),T/C,[3],101 % of control
same,T/C,[1],101 % of control
same,T/C,[2],101 % of control
CCc1cc2c(=O)[nH]c(-c3cccnc3)nc2s1,T/C,"dose: 50.0 mg/kg/injection, schedule: Q01DX005 (ip), vehicle: Klucel (hydroxypropylcellulose) (HPC)",106 % of control
same,T/C,"dose: 100.0 mg/kg/injection, schedule: Q01DX005 (ip), vehicle: Klucel (hydroxypropylcellulose) (HPC)",100 % of control
same,T/C,"dose: 200.0 mg/kg/injection, schedule: Q01DX005 (ip), vehicle: Klucel (hydroxypropylcellulose) (HPC)",88 % of control
COc1ccccc1NC(=O)Cc1nc(=O)[nH]c(=O)[nH]1,T/C,"dose: 12.5 mg/kg/injection, schedule: Q01DX009 (ip), vehicle: Klucel (hydroxypropylcellulose) (HPC)",100 % of control
same,T/C,"dose: 25.0 mg/kg/injection, schedule: Q01DX009 (ip), vehicle: Klucel (hydroxypropylcellulose) (HPC)",90 % of control
same,T/C,[18],101 % of control
same,T/C,[19],102 % of control
same,T/C,[20],96 % of control
C[NH-].C[NH-].[Cl][Pt+2][Cl],T/C,"dose: 12.5 mg/kg/injection, schedule: Q01DX009 (ip), vehicle: saline",113 % of control
N#CC1C(=O)NC(=S)NC1CCc1ccccc1 (stereo not drawn),T/C,[18],105 % of control
same,T/C,[19],99 % of control
same,T/C,[20],100 % of control
Nc1nc(N)c2cc(CCc3ccccc3)ccc2n1,T/C,"dose: 6.25 mg/kg/injection, schedule: Q01DX009 (ip), vehicle: saline with Tween-80",95 % of control
same,T/C,"dose: 12.5 mg/kg/injection, schedule: Q01DX009 (ip), vehicle: saline with Tween-80",109 % of control
same,T/C,"dose: 25.0 mg/kg/injection, schedule: Q01DX009 (ip), vehicle: saline with Tween-80",90 % of control
same,T/C,[12],104 % of control
same,T/C,[13],109 % of control
Cc1cccc(/C=N/N2CCN(C(c3ccccc3)c3ccccc3)CC2)n1,T/C,[7],100 % of control
same,T/C,[8],97 % of control
same,T/C,[9],100 % of control
